Drawing on DBAASP, this text covers MIC for four compounds.

Some test systems named below: Aeromonas hydrophila; Bacillus cereus; Bacillus subtilis; Candida albicans; Cryptococcus neoformans; Escherichia coli; Pseudomonas aeruginosa; Pseudomonas fluorescens; Shigella flexneri; Staphylococcus aureus; Vibrio alginolyticus; Vibrio parahaemolyticus; Escherichia coli C25.
Experiment in all cases: ≥ marks a high value that may be exact or a test limit, other limits are often not marked, values filed in µg/mL are converted to µM
The subject of test [1] is Acinetobacter baumannii MTCC 9829.
Test [2] relates to Alcaligenes faecalis MTCC 1937.
For test [3], the system named is Alkalihalobacillus alcalophilus MTCC 860.
Test [4] deals with Bordetella bronchiseptica MTCC 6837.
Test [5] concerns Citrobacter freundii MTCC 1658.
Test [6] deals with Citrobacter koseri MTCC 1657.
In test [7] the test system is Corynebacterium glutamicum MTCC 2679.
For test [8], the system named is Enterococcus faecalis MTCC 439.
Test [9] relates to Escherichia coli K12 MG1655.
The subject of test [10] is Haemophilus influenzae MTCC 621.
The test system of test [11] is Klebsiella aerogenes MTCC 111.
Test [12] relates to Klebsiella oxytoca MTCC 2275.
The test system of test [13] is Klebsiella pneumoniae MTCC 7407.
Test [14] concerns Pluralibacter gergoviae MTCC 3826.
For test [15], the system named is Proteus mirabilis MTCC 3158.
The subject of test [16] is Proteus vulgaris MTCC 1771.
Test [17] concerns Pseudomonas aeruginosa MTCC 3542.
Test [18] concerns Salmonella enterica MTCC 9844.
The subject of test [19] is Salmonella enterica subsp. enterica serovar Typhimurium ATCC 14028.
Test [20] deals with Shigella boydii MTCC 11947.
The subject of test [21] is Shigella flexneri MTCC 1457.
Test [22] has as its system Staphylococcus aureus MTCC 3160.
The subject of test [23] is Staphylococcus haemolyticus MTCC 3383.
Test [24] relates to Stenotrophomonas maltophilia MTCC 1890.
Test [25] relates to Vibrio cholerae MTCC 3904.
Test [26] has as its system Corynebacterium glutamicum.
The test system of test [27] is Staphylococcus epidermidis.
Test [28] concerns Staphylococcus aureus ATCC 25923.
Test [29] deals with Escherichia coli ATCC 25922.
Test [30] has as its system Listeria monocytogenes KCTC 19111.
Test [31] relates to Pseudomonas aeruginosa 3241.
Test [32] relates to Pseudomonas aeruginosa 4007.
The subject of test [33] is Pseudomonas aeruginosa ATCC 15692.
Test [34] deals with Pseudomonas aeruginosa CCARM 2073.
In test [35] the test system is Pseudomonas aeruginosa CCARM 2075.
Test [36] has as its system Salmonella typhimurium KCTC 1926.
Test [37] has as its system Staphylococcus aureus 3399.
In test [38] the test system is Staphylococcus aureus 3518.
Test [39] concerns Staphylococcus aureus CCARM 3125.
In test [40] the test system is Staphylococcus aureus CCARM 3709.
Test [41] concerns Staphylococcus epidermidis KCTC 1917.

In brackets after ≈: the same amount, converted by molar mass.

Turning to `CC[C@H](C)[C@H](NC(=O)[C@@H](NC(=O)[C@H](CCC(N)=O)NC(=O)[C@H](CCCN=C(N)N)NC(=O)[C@H](C)NC(=O)[C@H](C)NC(=O)[C@H](C)NC(=O)[C@H](Cc1c[nH]c2ccccc12)NC(=O)[C@@H](N)CCC(=O)O)C(C)C)C(=O)N[C@H](C(=O)N[C@@H](Cc1cnc[nH]1)C(=O)N[C@@H](C)C(=O)N[C@H](C(=O)N[C@@H](CCCN=C(N)N)C(=O)N[C@@H](CCCCN)C(=O)N[C@@H](Cc1ccc(O)cc1)C(=O)O)[C@@H](C)O)[C@@H](C)CC` [EWAAARQVIIHATRKY], the MIC in test [1], in test [2], in test [3], in test [4], in test [5] and in [6] was at least 66.9 µM throughout. In addition, the MIC in test [7] was at least 33.5 µM; in test [8] it was at least 66.9 µM; in test [9], at least 66.9 µM; in test [10], at least 66.9 µM; in [11], at least 66.9 µM; in [12], at least 66.9 µM. The MIC in test [13], in test [14], in test [15], in test [16], in test [17] and in test [18] was at least 66.9 µM in each case. The MIC in test [19] is above 66.9 µM; in [20], at least 66.9 µM; in [21] it was at least 66.9 µM; in test [22] it was at least 66.9 µM; in test [23] it was at least 66.9 µM; in [24], at least 66.9 µM. Moreover, the MIC in test [25] was at least 66.9 µM.
For `CC(C)C[C@H](NC(=O)[C@H](CO)NC(=O)[C@H](CC(C)C)NC(=O)[C@H](Cc1cnc[nH]1)NC(=O)[C@H](CO)NC(=O)[C@@H](N)CCC(N)=O)C(=O)N[C@H]1CSSC[C@@H](C(=O)N[C@@H](CCCCN)C(=O)N[C@@H](Cc2ccccc2)C(=O)O)NC(=O)[C@@H]2CSSC[C@@H]3NC(=O)[C@H](CSSC[C@H](NC(=O)[C@H](CC(N)=O)NC3=O)C(=O)N[C@H]3CSSC[C@H](NC(=O)CNC(=O)[C@H](CCCCN)NC(=O)[C@H](Cc4ccc(O)cc4)NC(=O)[C@H](CCCN=C(N)N)NC(=O)[C@H](CC(N)=O)NC3=O)C(=O)NCC(=O)N[C@@H](Cc3ccccc3)C(=O)N2)NC(=O)[C@H](Cc2c[nH]c3ccccc23)NC(=O)[C@H](CCCN=C(N)N)NC1=O` [QSHLSLCRWCCNCCNRYKGCGFCCKF], the MIC against Aeromonas hydrophila is at least 50 µM; against Bacillus cereus, at least 50 µM; in the test with Bacillus subtilis it was 8.84 µM (≈ 27 µg/mL); in the test with Candida albicans, above 50 µM; in [26] it was 8.84 µM (≈ 27 µg/mL); with Cryptococcus neoformans, at least 50 µM. Further, the MIC in the test on Escherichia coli was above 50 µM; against Pseudomonas aeruginosa, 35.4 µM (≈ 108 µg/mL); with Pseudomonas fluorescens, 17.7 µM (≈ 54 µg/mL); with Shigella flexneri it was at least 50 µM; with Staphylococcus aureus it was above 50 µM; in test [27], at least 50 µM. Further, the MIC in the test with Vibrio alginolyticus and against Vibrio parahaemolyticus was at least 50 µM throughout.
For `CC[C@H](C)[C@H](NC(=O)CNC(=O)[C@H](CCCN=C(N)N)NC(=O)[C@@H](NC(=O)[C@@H](NC(=O)[C@H](CCCN=C(N)N)NC(=O)[C@@H](NC(=O)[C@@H](NC(=O)[C@@H](N)CCCCN)[C@@H](C)CC)[C@@H](C)CC)C(C)C)[C@@H](C)CC)C(=O)N[C@H](C(=O)N[C@@H](CCCN=C(N)N)C(=O)N[C@@H](CCCN=C(N)N)C(=O)N[C@@H](CCCN=C(N)N)C(N)=O)[C@@H](C)CC` [KIIRVIRGIIRRR], the MIC (against Escherichia coli C25; in [28]) was 9.5 µM (≈ 15.7 µg/mL) throughout.
As for `CC(C)C[C@H](NC(=O)[C@H](Cc1c[nH]c2ccccc12)NC(=O)[C@H](CCCCN)NC(=O)[C@H](CCCCN)NC(=O)[C@H](CC(C)C)NC(=O)[C@H](Cc1c[nH]c2ccccc12)NC(=O)[C@H](CCCCN)NC(=O)[C@H](CCCCN)NC(=O)[C@H](CC(C)C)NC(=O)[C@H](Cc1c[nH]c2ccccc12)NC(=O)[C@@H](N)CCCCN)C(=O)N[C@@H](CCCCN)C(N)=O` [KWLKKWLKKWLK], the MIC in [29] was found to be 1 µM (≈ 1.68 µg/mL); in test [30], 2 µM (≈ 3.37 µg/mL); in test [31] it was 2 µM (≈ 3.37 µg/mL); in [32] it was 2 µM (≈ 3.37 µg/mL); in [33], 2 µM (≈ 3.37 µg/mL); in [34], 2 µM (≈ 3.37 µg/mL). In addition, the MIC in test [35] stood at 1 µM (≈ 1.68 µg/mL); in test [36], 2 µM (≈ 3.37 µg/mL); in [37], 2 µM (≈ 3.37 µg/mL); in test [38], 2 µM (≈ 3.37 µg/mL); in [28], 2 µM (≈ 3.37 µg/mL); in [39] it was 2 µM (≈ 3.37 µg/mL). The MIC in test [40] amounted to 2 µM (≈ 3.37 µg/mL); in test [41], 1 µM (≈ 1.68 µg/mL).
